The results in this text go back to US12643886B2 (Ontario Institute for Cancer Research (OICR), priority 2021, dated 2026).

pIC50: −log10 of the molar value.

Format in all cases: biochemical
Assay [1] concerns the target T1, NUAK2 (h) (Homo sapiens, UniProt Q9H093).
T1 construct: This assay was done radiometrically using full-length, recombinant enzyme; purchased Eurofins
T1 sequence (Q9H093 1-628): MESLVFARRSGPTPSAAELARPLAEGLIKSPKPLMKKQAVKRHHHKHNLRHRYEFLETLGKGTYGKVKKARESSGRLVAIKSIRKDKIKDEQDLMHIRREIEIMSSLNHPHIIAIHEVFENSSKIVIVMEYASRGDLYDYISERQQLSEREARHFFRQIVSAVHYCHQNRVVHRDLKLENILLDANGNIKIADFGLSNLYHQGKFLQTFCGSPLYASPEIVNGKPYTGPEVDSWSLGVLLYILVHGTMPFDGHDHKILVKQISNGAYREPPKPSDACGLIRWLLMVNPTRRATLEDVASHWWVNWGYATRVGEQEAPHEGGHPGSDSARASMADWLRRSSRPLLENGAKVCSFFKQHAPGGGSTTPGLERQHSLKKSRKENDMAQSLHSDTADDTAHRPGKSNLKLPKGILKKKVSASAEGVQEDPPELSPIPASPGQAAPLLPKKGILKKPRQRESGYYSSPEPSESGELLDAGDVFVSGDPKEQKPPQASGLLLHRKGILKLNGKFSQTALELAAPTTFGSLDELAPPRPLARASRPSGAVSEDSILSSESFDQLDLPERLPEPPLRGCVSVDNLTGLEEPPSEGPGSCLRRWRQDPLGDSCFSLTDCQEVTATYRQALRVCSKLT
In words: NUAK2 enzymatic assay (radiometric, Eurofins). As to conditions: full-length recombinant enzyme. How it is done:
(§1) To identify small molecule NUAK inhibitors, a biochemical NUAK2 enzymatic assay were outsourced to Eurofins. This assay was done radiometrically using full-length, recombinant enzyme. NUAK2 (h) was incubated with 8 mM MOPS pH 7.0, 0.2 mM EDTA, 300 μM […], 10 mM magnesium acetate and […] (specific activity and concentration as required). The reaction was initiated by the addition of the Mg/ATP mix. After incubation for 40 minutes at room temperature, the reaction was stopped by the addition of phosphoric acid to a concentration of 0.5%. 10 μL of the reaction was then spotted onto a P30 filtermat and washed four times for 4 minutes in 0.425% phosphoric acid and once in methanol prior to drying and scintillation counting. Compounds were routinely counter-screened against Aurora A and NUAK1. The results are shown in Table 1 where IC50's are reported in the following ranges: A: 0.1-10 nM; B: 11-100 nM; C: 101-1000 nM; D: >1000 nM for the compounds of Formula (I)

In assay [2] the target is T2, NUAK1 (Homo sapiens, UniProt O60285).
T2 sequence (O60285 1-661): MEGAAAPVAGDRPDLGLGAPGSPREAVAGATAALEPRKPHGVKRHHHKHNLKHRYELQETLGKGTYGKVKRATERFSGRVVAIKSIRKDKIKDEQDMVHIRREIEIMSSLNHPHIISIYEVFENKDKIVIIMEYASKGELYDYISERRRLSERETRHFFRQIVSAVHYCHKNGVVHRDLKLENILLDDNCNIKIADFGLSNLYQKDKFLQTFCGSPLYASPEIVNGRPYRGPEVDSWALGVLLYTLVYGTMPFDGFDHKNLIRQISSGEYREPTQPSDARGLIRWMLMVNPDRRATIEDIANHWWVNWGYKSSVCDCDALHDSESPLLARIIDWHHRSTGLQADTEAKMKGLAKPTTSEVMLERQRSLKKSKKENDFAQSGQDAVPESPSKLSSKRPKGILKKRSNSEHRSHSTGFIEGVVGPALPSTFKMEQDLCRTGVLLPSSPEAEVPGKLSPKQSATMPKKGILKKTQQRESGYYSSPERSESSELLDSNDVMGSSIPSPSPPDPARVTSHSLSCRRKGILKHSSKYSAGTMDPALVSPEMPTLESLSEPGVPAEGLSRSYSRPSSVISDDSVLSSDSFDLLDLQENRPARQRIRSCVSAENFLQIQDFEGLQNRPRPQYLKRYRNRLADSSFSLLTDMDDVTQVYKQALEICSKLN
As to the kind of experiment: Counter-screen against NUAK1. How it is done:
as §1
(In general: A counterscreen serves to expose hits that act by an unwanted route or on another target.)

Assay [3] has as its target T3, Aurora A (Homo sapiens, UniProt O14965).
T3 sequence (O14965 1-403): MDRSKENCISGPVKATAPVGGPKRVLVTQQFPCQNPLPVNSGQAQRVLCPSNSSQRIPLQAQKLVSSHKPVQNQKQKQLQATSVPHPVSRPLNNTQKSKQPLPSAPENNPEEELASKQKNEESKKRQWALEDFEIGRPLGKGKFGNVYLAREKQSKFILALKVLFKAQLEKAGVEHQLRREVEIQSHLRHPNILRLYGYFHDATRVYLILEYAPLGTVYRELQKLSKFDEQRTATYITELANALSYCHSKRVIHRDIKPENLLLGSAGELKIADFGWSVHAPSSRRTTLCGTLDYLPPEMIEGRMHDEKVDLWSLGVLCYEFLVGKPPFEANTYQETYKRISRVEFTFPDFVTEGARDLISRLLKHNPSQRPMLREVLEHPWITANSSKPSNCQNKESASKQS
In words: Counter-screen against Aurora A. The note with it: read-out: AUR-A (IC50). How it is done:
as §1

For orientation: pIC50 means the negative decadic logarithm of the IC50, by convention in mol/L. Turning to `O=C1NCc2cccc(Nc3nc(Nc4ccc(N5CCOCC5)cc4OC(F)F)ncc3C(F)(F)F)c21` [Compound I-60, 7-((2-((2-(difluoromethoxy)-4-morpholinophenyl)amino)-5-(trifluoromethyl)pyrimidin-4-yl)amino)isoindolin-1-one], the values for the negative logarithm of the IC50 (pIC50) in assay [1], in assay [2] and in assay [3] were 7.00 to 7.96, 7.00 to 7.96 and 6.00 to 7.00, respectively.
For the molecule `COc1c(Nc2ncc(Cl)c(Nc3cccc4c3C(=O)NC4)n2)ccc(N2C[C@H]3CN(C)C[C@H]3C2)c1F` [Compound I-29, 7-((5-chloro-2-((3-fluoro-2-methoxy-4-((3aR,6aS)-5-methylhexahydropyrrolo[3,4-c]pyrrol-2(1H)-yl)phenyl)amino)pyrimidin-4-yl)amino)isoindolin-1-one], the results for the pIC50 in assay [1], in assay [2] and in assay [3] were 7.00 to 7.96, 7.00 to 7.96 and 6.00 to 7.00, respectively.
Consider `COc1cc2c(cc1Nc1ncc(Cl)c(Nc3cccc4c3C(=O)NC4)n1)CNCC2` [Compound I-23, 7-((5-chloro-2-((6-methoxy-1,2,3,4-tetrahydroisoquinolin-7-yl)amino)pyrimidin-4-yl)amino)isoindolin-1-one], for which the results for the pIC50 in assay [1], in assay [2] and in assay [3] were 7.00 to 7.96, 7.00 to 7.96 and 6.00 to 7.00, respectively.
As to `C[C@@H]1CN(c2ccc(Nc3ncc(C(F)(F)F)c(Nc4cccc5c4C(=O)NC5)n3)c(OC(F)F)c2)CCN1` [Compound I-57, (R)-7-((2-((2-(difluoromethoxy)-4-(3-methylpiperazin-1-yl)phenyl)amino)-5-(trifluoromethyl)pyrimidin-4-yl)amino)isoindolin-1-one], the values for the pIC50 in assay [1], in assay [2] and in assay [3] were 8.00 to 10.00, 7.00 to 7.96 and under 6.00, respectively.
In the same order, the values of `CCN(CC)CCOc1ccc(Nc2ncc(Cl)c(Nc3cccc4c3C(=O)NC4)n2)cc1` [Compound I-62, 7-((5-chloro-2-((4-(2-(diethylamino)ethoxy)phenyl)amino)pyrimidin-4-yl)amino)isoindolin-1-one] are 8.00 to 10.00, 8.00 to 10.00 and 7.00 to 7.96.
In the case of `O=C1NCc2cccc(Nc3nc(Nc4ccc(N5CCCNCC5)cc4OC(F)F)ncc3C(F)(F)F)c21` [Compound I-55, 7-((2-((4-(1,4-diazepan-1-yl)-2-(difluoromethoxy)phenyl)amino)-5-(trifluoromethyl)pyrimidin-4-yl)amino)isoindolin-1-one], the values for the pIC50 in assay [1], in assay [2] and in assay [3] were 8.00 to 10.00, 7.00 to 7.96 and under 6.00, respectively.
The like results for `COc1c(Nc2ncc(C(F)(F)F)c(Nc3cccc4c3C(=O)NC4)n2)ccc(N2CCC(N3CCNCC3)CC2)c1F` [Compound I-39, 7-((2-((3-fluoro-2-methoxy-4-(4-(piperazin-1-yl)piperidin-1-yl)phenyl)amino)-5-(trifluoromethyl)pyrimidin-4-yl)amino)isoindolin-1-one] were, in that order, 7.00 to 7.96, 7.00 to 7.96 and 7.00 to 7.96.
As to `CCN1CCN(C2CCN(c3ccc(Nc4ncc(Cl)c(Nc5cccc6c5C(=O)NC6)n4)c(OC(F)F)c3)CC2)CC1` [Compound I-80, 7-((5-chloro-2-((2-(difluoromethoxy)-4-(4-(4-ethylpiperazin-1-yl)piperidin-1-yl)phenyl)amino)pyrimidin-4-yl)amino)isoindolin-1-one], the pIC50 was 7.00 to 7.96 in assay [1], 7.00 to 7.96 in assay [2] and 6.00 to 7.00 in assay [3].
For the molecule `CN1C[C@@H]2C[C@H]1CN2c1ccc(Nc2ncc(C(F)(F)F)c(Nc3cccc4c3C(=O)NC4)n2)c(OC(F)F)c1` [Compound I-82, 7-((2-((2-(difluoromethoxy)-4-((1S,4S)-5-methyl-2,5-diazabicyclo[2.2.1]heptan-2-yl)phenyl)amino)-5-(trifluoromethyl)pyrimidin-4-yl)amino)isoindolin-1-one], the figures for the pIC50 in assay [1], in assay [2] and in assay [3] were 8.00 to 10.00, 7.00 to 7.96 and 6.00 to 7.00, respectively.
As for `CC1(C)CN(c2ccc(Nc3ncc(C(F)(F)F)c(Nc4cccc5c4C(=O)NC5)n3)c(OC(F)F)c2)CCN1` [Compound I-65, 7-((2-((2-(difluoromethoxy)-4-(3,3-dimethylpiperazin-1-yl)phenyl)amino)-5-(trifluoromethyl)pyrimidin-4-yl)amino)isoindolin-1-one], the pIC50 in assay [1] was 8.00 to 10.00; in assay [2], 6.00 to 7.00; in assay [3] it was 6.00 to 7.00.
For `COc1cc2c(cc1Nc1ncc(C(F)(F)F)c(Nc3cccc4c3C(=O)NC4)n1)CNCC2` [Compound I-30, 7-((2-((6-methoxy-1,2,3,4-tetrahydroisoquinolin-7-yl)amino)-5-(trifluoromethyl)pyrimidin-4-yl)amino)isoindolin-1-one], the pIC50 was 8.00 to 10.00 in assay [1], 8.00 to 10.00 in assay [2] and 6.00 to 7.00 in assay [3].
As to `CCN1CCN(c2ccc(Nc3ncc(Cl)c(Nc4cccc5c4C(=O)NC5)n3)cc2F)CC1` [Compound I-4, 7-((5-chloro-2-((4-(4-ethylpiperazin-1-yl)-3-fluorophenyl)amino)pyrimidin-4-yl)amino)isoindolin-1-one], the pIC50 was 8.00 to 10.00 in assay [1], 7.00 to 7.96 in assay [2] and 8.00 to 10.00 in assay [3].
As to `O=C1NCc2cccc(Nc3nc(Nc4ccc(N5CCC6(CCNCC6)CC5)cc4OC(F)F)ncc3C(F)(F)F)c21` [Compound I-58, 7-((2-((2-(difluoromethoxy)-4-(3,9-diazaspiro[5.5]undecan-3-yl)phenyl)amino)-5-(trifluoromethyl)pyrimidin-4-yl)amino)isoindolin-1-one], the figures for the pIC50 in assay [1], in assay [2] and in assay [3] were 7.00 to 7.96, 7.00 to 7.96 and 6.00 to 7.00, respectively.
With `COc1cc2c(cc1Nc1ncc(Cl)c(Nc3cccc4c3C(=O)NC4)n1)CCNC2` [Compound I-17, 7-((5-chloro-2-((7-methoxy-1,2,3,4-tetrahydroisoquinolin-6-yl)amino)pyrimidin-4-yl)amino)isoindolin-1-one], the pIC50 is 7.00 to 7.96 in assay [1], 7.00 to 7.96 in assay [2] and under 6.00 in assay [3].
As to `CN1CCN(c2ccc(Nc3ncc(Cl)c(Nc4cccc5c4C(=O)NC5)n3)c(C(F)(F)F)c2)CC1` [Compound I-8, 7-((5-chloro-2-((4-(4-methylpiperazin-1-yl)-2-(trifluoromethyl)phenyl)amino)pyrimidin-4-yl)amino)isoindolin-1-one], the pIC50 in assay [1] is 7.00 to 7.96; in assay [2], 6.00 to 7.00; in assay [3], 6.00 to 7.00.
As for `CN1CCc2ccc(Nc3ncc(Cl)c(Nc4cccc5c4C(=O)NC5)n3)cc2C1` [Compound I-10, 7-((5-chloro-2-((2-methyl-1,2,3,4-tetrahydroisoquinolin-7-yl)amino)pyrimidin-4-yl)amino)isoindolin-1-one], the pIC50 in assay [1], in assay [2] and in assay [3] was 8.00 to 10.00 throughout.
